We go through four compounds from patent US11542283B2, “Synthesis of peptide borate ester compound and use thereof” (JIANGSU CHIA TAI FENGHAI PHARMACEUTICAL CO., LTD., priority 2018, dated 2023).

The test system of data set [1] is ARH-77 xenograft tumors. Description: Evaluation in animal model of xenotransplantation (ARH-77 xenograft). To be noted: oral; for RTV Mean / T/C / TGI (tumor inhibition rate) / TV Mean: three weeks. It counts as in vivo, Balb/c nude mice. Here is the method: The human multiple myeloma cell line ARH-77 was used to implant tumors under the skin of Balb/enude mice to establish a transplanted tumor model. The specific experimental process is as follows.
1. 4-6 week-old Balb/c nude mice purchased from Shanghai Bikai Laboratory Animal Co., Ltd., were transferred to a barrier system to adapt to the environment for one week.
2. The cells were cultured to the logarithmic growth phase, digested, centrifuged, re-suspended in Matrigel at a density of 1×10^7 cells/ml, and placed on ice for later use. In the barrier system, the tumor cells were inoculated into the axilla of the animal's right forelimb in an amount of 1×10^6 cells per animal, and the inoculation volume for each animal was 100 microliters.
3. The animals were grown and the tumor volume was measured by a vernier caliper. When the average volume was increased to 100-150 mm^3, the animals were randomly divided into three groups including a blank control group, a positive drug group (Compound MLN-9708) and an experimental group […]), each group having 6 animals.
The formula for calculating tumor volume is: Volume(mm3)=0.5×(Length(mm)×Width(mm)2)
4. The compound used was formulated with a 5% R-sulfobutyl cyclodextrin sodium aqueous solution to give an appropriate concentration, ultrasonicated until the solution became clear, and then stored in a refrigerator at 4° C. for later use.
5. The mice were orally administered. The frequency of administration for the positive drug group was twice a week, and the dosage was 5 mg/kg. The mice in the experimental group were administered daily, and the dosage was 1 mg/kg. The administration was continuous for three weeks, and then the mice were sacrificed to end the experiment. During this process, the tumor volume was measured and recorded twice a week. The inhibitory effect of agents on tumor growth was calculated by the GraphPad Prism software.

For data set [2], the target named is proteasome activity in blood cells (Mus musculus (Mouse), UniProt O55234). Briefly: In-vivo pharmacodynamics: proteasome activity in blood cells. The conditions noted are these: ICR mice, oral single dose 2 mg/kg. The protocol:
The compound designed in the present invention can be used to treat malignant tumors of the blood system, so the efficacy of the compound was evaluated by detecting the activity of the proteasome in the blood after single administration, and the in-vivo pharmacodynamic study can be carried out by blood sampling at different time points.
1. 8 week-old ICR mice purchased from Shanghai Bikai Laboratory Animal Co., Ltd., were transferred to a barrier system to adapt to the environment for one week.
2. The animals were divided into three groups, including a positive control group (MLN9708) and two experimental groups (IV-9, V-9A), each group having 3 animals.
3. Before administration, 100 μL of blood was sampled from each animal from the orbital venus plexus and used as the blank control, and the proteasome activity measured in blood cells in this sample was taken as 100%. 1 and 24 hrs after administration, blood was sampled from the orbital venus plexus, and the proteasome activity in blood cells was detected. The inhibitory effect of the drug on proteasome activity and recovery of proteasome activity in blood was obtained by comparison with the data at time 0.
4. […]
5. […] A cell lysing solution was added for protein quantification to correct the detected value. […] The dilution was further reacted with the fluorescent peptide substrate to detect the proteasome activity on a microplate reader.

The target in data set [3] is human erythrocyte 20S proteasome (Homo sapiens (Human), UniProt P28074). Briefly: Assay of inhibition on proteasome activity (chymotrypsin-like, Suc-LLVY-AMC substrate). It counts as biochemical. The text has this:
The proteasome used in the present invention is human erythrocyte 20S proteasome, and the enzyme, fluorescent substrate and test buffer are all purchased from Enzo.

The nature of data set [4]: In-vivo pharmacokinetic evaluation in SD rats. To be noted: male SD rats; for AUC(0-t) / MRT last / half-life / bioavailability: rat, plasma; for AUC(0-t) / MRT last / half-life / CL_obs / Vz_obs: 2.0 mg/kg; for bioavailability: oral, p.o. 2.0 mg/kg vs i.v. 2.0 mg/kg, read-out: F (oral bioavailability); for CL_obs / Vz_obs: i.v. Here is the method: Twelve male SD rats weighing 220±20g, were randomly divided into four groups.
Two groups were respectively given IV-9 and V-9A by tail vein injection at doses given in a table below, and before and 10 min, 20 min. 30 min, 1 h, 2 h, 4 h, 8 h, 12 h, 24 h and 36 h after administration, about 0.200 mL of blood was collected from the jugular vein, placed in a test tube containing EDTA-K2, and centrifuged at a high speed (7800×g) for 15 min. The plasma was separated, and stored at −15° C. to −35° C. The pharmacokinetic differences of IV-9 and V-9A administered by intravenous injection were compared.
The other two groups were respectively given IV-9 and V-9A by oral gavage at doses given in a table below, and before and 5 min, 10 min, 20 min, 30 min, 1 h, 2 h, 4 h, 8 h, 12 h, 24 h and 36 h after administration, about 0.200 mL of blood was collected from the jugular vein, placed in a test tube containing EDTA-K2, and centrifuged at a high speed (7800×g) for 15 min. The plasma was separated, and stored at −15° C. to −35° C. The pharmacokinetic differences of IV-9 and V-9A administered by oral gavage were compared.

pIC50: −log10 of the molar value. Read-outs that look alike come from different tables or passages of the source.

Sequence of proteasome activity in blood cells (O55234 60-264): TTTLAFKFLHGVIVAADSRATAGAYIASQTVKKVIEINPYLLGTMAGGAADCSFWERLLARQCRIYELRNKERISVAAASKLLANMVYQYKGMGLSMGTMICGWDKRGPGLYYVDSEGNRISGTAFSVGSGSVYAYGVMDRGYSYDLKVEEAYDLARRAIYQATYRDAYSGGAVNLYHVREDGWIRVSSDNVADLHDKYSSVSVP

What is called T/C is the ratio of treated to control. Regarding `CC(C)C[C@H](NC(=O)CNC(=O)c1cc(Cl)ccc1Cl)B1OC(=O)CC(CC(=O)O)(C(=O)O)O1` (stereo partly drawn) [MLN9708, reference compound], in data set [1] (5 mg/kg twice a week), the “TW Mean (Day 21)” value is 1.33 g, the “RTV Mean” value is 9.13, the T/C is 58.94% and the “TGI (tumor inhibition rate)” value was found to be 25.28%. In data set [1] (5 mg/kg twice a week), the “TV Mean” value is reported as 1042.71 mm^3. In data set [1] (5 mg/kg twice a week, listed as MLN-9708), the “TGI (tumor inhibition rate)” value came to 25.28%.
As usually defined, the pIC50 is the IC50 on a negative log10 scale, so that one unit is a factor of ten. Lower therefore signals a high IC50. Broadly, the AUC(0-t) is exposure summed from dosing to a finite time, without extrapolation to infinity. As usually defined, the MRT last is the average time that molecules of a dose stay in the body. In general, half-life refers to the time in which the quantity being followed falls by half. A high value points to slow loss. Usually bioavailability stands for the share of a dose that reaches the circulation, judged against a reference dose that is usually intravenous. As for `CSC[C@H](NC(=O)c1cc(Cl)ccc1Cl)C(=O)N[C@@H](CC(C)C)B1OCCNCCO1` [Compound V-9A, (R)-diethanolamine N-(2,5-dichlorobenzoyl)-3-methylmercaptopropionamido-D-leucine borate], the “inhibitory activity on proteasome in blood cells” value in data set [2] (1 hr after administration, compared with MLN9708 5 mg/kg) is reported as “even better inhibitory activity”. In addition, the “proteasome activity in blood cells recovered, of the activity in the control group” value in data set [2] (24 hrs after administration) stood at 40%. Also, the pIC50 in data set [3] was 8.25. In data set [4] (Sprague-Dawley (SD), iv), this compound had an AUC(0-t) of 2550 ng·h/mL, an MRT last of 2.18 h and a half-life of 3.1 h. Also, in data set [4] (Sprague-Dawley (SD)), the bioavailability was determined as 24.9%. Further, in data set [4] (Sprague-Dawley (SD), po), the AUC(0-t) was found to be 634 ng·h/mL, the MRT last came to 3.37 h and the half-life is 2.88 h. Also, in data set [4], the CL_obs was 11.2 mL/min/kg and the Vz_obs was found to be 3.01 L/kg. Also, in data set [1] (1 mg/kg daily), the “TW Mean (Day 21)” value is 0.65 g, the “RTV Mean” value stood at 3.72, the T/C amounted to 24.02% and the “TGI (tumor inhibition rate)” value is listed as 63.48%. Further, the “TV Mean” value in data set [1] (1 mg/kg daily) is listed as 354.78 mm^3.
The compound `CSC[C@H](NC(=O)c1cc(Cl)ccc1Cl)C(=O)N[C@@H](CC(C)C)B1OC(=O)CC(CC(=O)O)(C(=O)O)O1` (stereo partly drawn) [Compound V-9B, (R)-N-(2,5-dichlorobenzoyl)-3-methylmercaptopropionamido-D-leucine borate citratte] showed a pIC50 in data set [3] of 8.18.
As to `CSC[C@H](NC(=O)c1cc(Cl)ccc1Cl)C(=O)N[C@@H](CC(C)C)B(O)O` [IV-9], in data set [4], the CL_obs is 16.4 mL/min/kg, the Vz_obs came out at 2.914 L/kg and the bioavailability is 11%. In data set [4] (iv), this compound gave an AUC(0-t) of 1890 ng·h/mL, an MRT last of 1.55 h and a half-life of 2.08 h. Moreover, in data set [4] (po), the AUC(0-t) stood at 208 ng·h/mL, the MRT last was 2.35 h and the half-life is 2.14 h.
